# Like-named read-outs stand apart in the source and are kept apart here.
# Tests used:
# [1] = target: T1, Recombinant human factor B (Homo sapiens (Human), UniProt P00751); test: biochemical
# [2] = target: T1, Recombinant human factor B
# T1 sequence (P00751 26-764): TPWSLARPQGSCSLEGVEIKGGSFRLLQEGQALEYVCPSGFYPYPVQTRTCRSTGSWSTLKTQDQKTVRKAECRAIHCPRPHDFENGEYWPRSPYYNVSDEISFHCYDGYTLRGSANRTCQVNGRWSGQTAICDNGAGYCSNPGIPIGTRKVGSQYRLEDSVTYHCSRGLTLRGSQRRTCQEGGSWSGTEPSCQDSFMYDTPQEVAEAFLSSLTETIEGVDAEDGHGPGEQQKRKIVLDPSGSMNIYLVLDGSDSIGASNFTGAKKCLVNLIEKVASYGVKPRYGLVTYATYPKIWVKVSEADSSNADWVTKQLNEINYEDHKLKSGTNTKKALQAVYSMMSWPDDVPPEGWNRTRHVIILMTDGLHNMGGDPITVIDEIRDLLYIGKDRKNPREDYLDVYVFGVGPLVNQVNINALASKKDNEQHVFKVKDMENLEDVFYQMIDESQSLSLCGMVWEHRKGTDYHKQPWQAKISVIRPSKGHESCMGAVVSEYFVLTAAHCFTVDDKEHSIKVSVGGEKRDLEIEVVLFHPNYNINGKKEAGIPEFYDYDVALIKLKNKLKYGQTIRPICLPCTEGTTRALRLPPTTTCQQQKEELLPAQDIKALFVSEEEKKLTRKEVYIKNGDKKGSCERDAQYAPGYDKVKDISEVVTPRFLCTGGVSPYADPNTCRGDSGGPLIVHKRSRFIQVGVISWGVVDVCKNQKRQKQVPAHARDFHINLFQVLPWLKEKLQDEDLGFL
IC50 [2] [nM],Compound,IC50 [1] [nM]
,"Cc1cc(C2CC2)c(C(N)(c2nc3cc(C#N)cnc3[nH]2)C(F)(F)F)c2cc[nH]c12 (racemic) [Example 17-G, (±)-2-(1-Amino-1-(5-cyclopropyl-7-methyl-1H-indol-4-yl)-2,2,2-trifluoroethyl)-3H-imidazo[4,5-b]pyridine-6-carbonitrile]",90
1380,COc1cc(C)c2[nH]ccc2c1C(C)(N)c1nc2cc(C#N)cnc2[nH]1 (stereo not drawn) [10-B b) (+)],
50,COc1cc(C)c2[nH]ccc2c1C(C)(O)c1nc2cc(C#N)cnc2[nH]1 (stereo not drawn) [7-D b) (+)],
,"Cc1cc(C2CC2)c(C(C)(O)c2nc3cc(C#N)cnc3[nH]2)c2cc[nH]c12 (racemic) [Example 17-C, (±)-2-(1-(5-Cyclopropyl-7-methyl-1H-indol-4-yl)-1-hydroxyethyl)-3H-imidazo[4,5-b]pyridine-6-carbonitrile]",60
290,COc1cc(C)c2[nH]ccc2c1C(N)(c1nc2cc(C#N)cnc2[nH]1)C(F)(F)F (stereo not drawn) [5-B b) (+)],
2350,CCc1cc(C)c2[nH]ccc2c1C(O)(c1nc2cc(C#N)cnc2[nH]1)C(F)(F)F (stereo not drawn) [14-I b) (+)],
,"COc1cc(C)c2[nH]ccc2c1C(C)(C)c1nc2cc(C#N)cnc2[nH]1 [Example 12-D, 2-(2-(5-Methoxy-7-methyl-1H-indol-4-yl)propan-2-yl)-3H-imidazo[4,5-b]pyridine-6-carbonitrile]",40
1520,CNC(c1nc2cc(C#N)cnc2[nH]1)(c1c(OC)cc(C)c2[nH]ccc12)C(F)(F)F (stereo not drawn) [9-D b) (+)],
,"Cc1cc(C2CC2)c(C(O)c2nc3cc(C#N)cnc3[nH]2)c2cc[nH]c12 (racemic) [Example 16-G, (±)-2-((5-Cyclopropyl-7-methyl-1H-indol-4-yl)(hydroxy)methyl)-3H-imidazo[4,5-b]pyridine-6-carbonitrile]",460
700,COc1cc(C)c2[nH]ccc2c1C(O)c1nc2ncc(C#N)cc2[nH]1 (stereo not drawn) [6-C b) (+)],
720,COc1cc(C)c2[nH]ccc2c1C(C)(OC)c1nc2cc(C#N)cnc2[nH]1 (stereo not drawn) [8-B b) (+)],
,"CCc1cc(C)c2[nH]ccc2c1C(C)(NC)c1nc2cc(C#N)cnc2[nH]1 (racemic) [Example 15-D, (±)-2-(1-(5-Ethyl-7-methyl-1H-indol-4-yl)-1-(methylamino)ethyl)-3H-imidazo[4,5-b]pyridine-6-carbonitrile]",540
3140,CNC(C)(c1nc2cc(C#N)cnc2[nH]1)c1c(OC)cc(C)c2[nH]ccc12 (stereo not drawn) [11-B b) (+)],
